The subject of this assay is HeLa. The experiment in a line: Cytotoxicity against HeLa cell lines. It is filed as functional, cell-based. As to conditions: Homo sapiens.

In general, EC50 refers to the concentration giving half of the maximal effect. High values mean a need for much substance, low ones an effect from little substance. The compound `CC1=CC(=O)c2ccccc2C1=O` [MENADIONE] had an EC50 of 3700 nM.

Compound `COC(=O)c1ccccc1C(=O)c1cn(OC)c2ccccc12` displayed an EC50 of over 50000 nM.

On to `O=C1c2[nH]c3ccccc3c2C(=O)c2cnc3ccccc3c21` [CALOTHRIXIN B], for which it took 240 nM to reach a half-maximal effect (EC50).

For `O=C1c2ccccc2C(=O)c2c1[nH]c1ccccc21` [BENZOCARBAZOLEDIONE], the EC50 was found to be 430 nM.

Compound `O=C1c2ccncc2C(=O)c2c1[nH]c1ccccc21` displayed an EC50 of 150 nM.

With `O=C1c2c[n+]([O-])c3ccccc3c2C(=O)c2[nH]c3ccccc3c21` [CALOTHRIXIN A], the EC50 turned out to be 120 nM.

With `COCn1c2c(c3ccccc31)C(=O)c1cnc3ccccc3c1C2=O`, the 50% effective concentration (EC50) came to 420 nM.

Take `COC(=O)c1ccccc1C(=O)c1c[nH]c2ccccc12`: the EC50 was over 50000 nM.

`COn1c2c(c3ccccc31)C(=O)c1ccccc1C2=O` showed an EC50 of 1600 nM.

Source of the values: ChEMBL document CHEMBL1137989, “Synthesis, electrochemistry, and bioactivity of the cyanobacterial calothrixins and related quinones” (J Med Chem, 2004).
